For 10 compounds, IC50 and inhibition results are on record in patent publication US10494384B2, “Urea peptoid boric acid compound, pharmaceutical composition thereof, preparation method therefor, and uses thereof” (Peking University, priority 2015, dated 2019).

The test system of assay [1] is MGC803 stomach cancer cells. Put plainly: anti-tumor activity in vitro (IC50), MTT. The class given is cell-based. As to conditions: Homo sapiens, MGC-803; MGC80-3, MTT, 72 h, value ± spread; read-out: IC50 (μM), growth of stomach cancer cells (MGC80-3). The procedure: Cancer cells were cultured in vitro. When cell growth reached logarithmic phase, the cells were collected and centrifuged at 1000 rpm for 5 min, before the supernate was removed and the cells were suspended in a moderate amount of medium, and then the concentration of cell was adjusted to 3.5×10^4/mL. The cell suspension was added into a 96-well plate with 100 μL per well and cultured in a cell incubator (37° C., 5% CO2) for 24 h. Then test drugs of different end concentrations were added, and the negative control group was added DMSO (end concentration was 0.5%), while each group afforded three repetitive holes. After cultivation for another 72 h in the cell incubator, a solution containing 5 mg/ml MTT (20 μL) was added into each well and the 96-well plate was placed at 37° C. for 3 h. To each well was added 150 μL DMSO, after oscillation in a shaking table for 5 min, the optical density (OD) values at 492 nm/620 nm were measured. IC50 values were calculated by Prism Graphpad statistical software.

For assay [2], the system named is Hela, human cervical carcinoma. Put plainly: preliminary anti-tumor screening in vitro, MTT method. The class given is cell-based. As to conditions: read-out: inhibition rates (%) Hela. The procedure: (§1) The test methods used in this test example are routine methods for anti-tumor activities test in pharmaceutical area, for example, referring to the following reference: (J. Immunol Method, 1983, 65, 55).
(§2) Test models: A: MTT method (Hela, human cervical carcinoma); B: SRB method (BGC-823, […]); C: SRB method (MCF-7, breast cancer); D: SRB method (A549, human lung cancer); E: SRB method (PC3M1E8, prostate cancer).
(§3) Inhibition rates of the compounds were measured under concentrations of 0.1 μM, 1 μM or 10 μM.
(In general: Tetrazolium dyes change colour on reduction, which living cells bring about.)

The target in assay [3] is T1, 20S proteasome extracted from rat liver (PGPH) (Rattus norvegicus, UniProt P28073+Q9JHW0).
T1 construct: 20S proteasome extracted from rat liver; from tissue; host or cells: rat liver
Put plainly: inhibition of 20S proteasome, PGPH activity (fluorescent peptide). As to conditions: rat liver 20S proteasome, 37° C., 1 h, read-out: inhibition rates (%) PGPH. It is filed as biochemical. The procedure: (§4) 1 μg of 20S proteasome extracted from rat liver was incubated with a 100 μL solution containing various concentrations of the present compounds, 50 μM fluorescent peptides and 20 mM Tris-HCl at 37° C. for 1 h, respectively. […] 0.1% DMSO was used as a solvent control. Compared with the fluorescence of solvent control, an inhibition rate or IC50 value was calculated.

In assay [4] the target is T2, 20S proteasome extracted from rat liver (T-L) (Rattus norvegicus, UniProt P40112+Q9JHW0).
T2 construct: 20S proteasome extracted from rat liver; from tissue; host or cells: rat liver
Put plainly: inhibition of 20S proteasome, T-L activity (fluorescent peptide). The note with it: rat liver 20S proteasome, 37° C., 1 h, read-out: inhibition rates (%) T-L. The class given is biochemical. The procedure: as §4

The test system of the next assay is BGC-823, liver cancer. Put plainly: preliminary anti-tumor screening in vitro, SRB method. It is filed as cell-based. The note with it: Homo sapiens, read-out: inhibition rates (%) BGC-823. The procedure:
as §1, §2, §3
In general terms: In SRB staining, fixed cells bind dye roughly in proportion to their protein.

The next assay relates to A549, human lung cancer. The assay is described as above. It is filed as cell-based. As to conditions: read-out: inhibition rates (%) A549. The procedure:
as §1, §2, §3

Another assay relates to MCF-7, breast cancer. Described as above. The class given is cell-based. As to conditions: Homo sapiens, read-out: inhibition rates (%) MCF-7; for inhibition at 0.1 µM: MCF7, 0.1 μM; for inhibition at 1 µM: MCF7, 1 μM; for inhibition at 10 µM: MCF7, 10 μM. The procedure: as §1, §2, §3
Assay [5] addresses T3, 20S proteasome extracted from rat liver (CT-L) (Rattus norvegicus, UniProt P18421+P28075).
T3 construct: 20S proteasome extracted from rat liver; from tissue; host or cells: rat liver
Put plainly: inhibition of 20S proteasome, CT-L activity (fluorescent peptide). The class given is biochemical. The note with it: rat liver 20S proteasome, 37° C., 1 h, read-out: inhibition rates (%) CT-L. The procedure: as §4

Molecules are shown by their SMILES.

For `CC(C)C[C@H](NC(=O)[C@@H](NC(=O)N1CCc2ccccc2C1)C(C)C)B(O)O` [Example 42, N-L-valyl-L-leucine borate-N′-1,2,3,4-tetrahydroisoquinoline-urea], the IC50 – broadly, the point on the concentration scale where inhibition reaches its midpoint – in assay [1] is 0.143 ± 0.004 µM.
On the same count and under the same terms, next, `CC(C)C[C@H](NC(=O)[C@H](Cc1ccccc1)NC(=O)N1CCCc2ccccc21)B(O)O` [Example 38, N-L-phenylalanyl-L-leucine borate-N′-1,2,3,4-tetrahydroquinoline-urea]: 0.137 ± 0.011 µM; `CC(C)C[C@H](NC(=O)[C@H](Cc1ccccc1)NC(=O)N1CCc2ccc([N+](=O)[O-])cc2C1)B(O)O` [Example 46, N-L-phenylalanyl-L-leucine borate-N′-7-nitro-1,2,3,4-tetrahydroisoquinoline-urea]: 0.0046 µM.
Take `COc1ccc2c(c1)CCN(C(=O)N[C@@H](Cc1ccccc1)C(=O)N[C@@H](CC(C)C)B(O)O)C2` [Example 52, N-L-phenylalanyl-L-leucine borate-N′-6-methoxy-1,2,3,4-tetrahydroisoquinoline-urea]: the IC50 in assay [1] stood at 0.85 ± 0.106 µM.
Consider `CC(C)C[C@H](NC(=O)[C@H](Cc1ccc2ccccc2c1)NC(=O)N1CCc2ccccc2C1)B(O)O` [Example 43, N-L-naphthylalanyl-L-leucine borate-N′-1,2,3,4-tetrahydroisoquinoline-urea], for which the IC50 in assay [1] came to 0.0173 ± 0.003 µM.
In the case of `CC(C)C[C@H](NC(=O)CNC(=O)Nc1cc(Cl)ccc1Cl)B(O)O` [Example 22, N-glycyl-L-leucine borate-N′-(2,5-dichloro-phenylamine)-urea], the inhibition (commonly the drop in the measured response relative to a control, in per cent) at 0.1 µM in assay [2] was 8.66%; in the assay with BGC-823, liver cancer, 2.04%; in the assay on A549, human lung cancer, 1.88%; in the assay on MCF-7, breast cancer, 7.17%. In addition, the inhibition at 1 µM in assay [2] was 19.7%; in the assay with BGC-823, liver cancer, 9.01%; in the assay on A549, human lung cancer it was 28.3%; with MCF-7, breast cancer it was 12.7%. Moreover, the inhibition at 10 µM in assay [2] was 43.4%; with BGC-823, liver cancer, 44.5%; in the assay on A549, human lung cancer it was 65.6%; with MCF-7, breast cancer it was 42.2%. Further, the inhibition at 0.2 µM in assay [3] was 10.1%; in assay [4] it was -3.95%; in assay [5], 62%. The inhibition at 2 µM is 7.17% in assay [3], 28.3% in assay [4] and 89.7% in assay [5]. Moreover, the inhibition at 20 µM was 5.29% in assay [3], 53.1% in assay [4] and 93.3% in assay [5].
`CC(C)C[C@H](NC(=O)N[C@H](Cc1ccccc1)C(=O)Nc1cnccn1)B(O)O` [Example 10, N-L-leucine borate-N′-(pyrazin-2-ylcarbamoyl)-D-phenylalanine-urea]: the inhibition at 0.1 µM in assay [2] was 11.8%; in the assay with BGC-823, liver cancer, 4.44%; in the assay with A549, human lung cancer, 3.45%; in the assay with MCF-7, breast cancer, 8.1%. The inhibition at 1 µM was 14.8% in assay [2]; 7.38% in the assay on BGC-823, liver cancer; 14.6% in the assay on A549, human lung cancer; 12.7% in the assay with MCF-7, breast cancer. For the same compound, the inhibition at 10 µM in assay [2] worked out at 27%; in the assay on BGC-823, liver cancer, 16.4%; in the assay with A549, human lung cancer, 25%; in the assay on MCF-7, breast cancer, 16%. The inhibition at 0.2 µM in assay [3] was 19%; in assay [4], -12.3%; in assay [5], -4.19%. The figures for the inhibition at 2 µM in assay [3], in assay [4] and in assay [5] were 79.8%, -5.93% and 47.8%, respectively. The figures for the inhibition at 20 µM in assay [3], in assay [4] and in assay [5] were 96%, 17.4% and 89%, respectively.
With `CC(C)C[C@H](NC(=O)[C@H](Cc1ccccc1)NC(=O)Nc1cnccn1)B(O)O` [Example 17, N-L-phenylalanyl-L-leucine borate-N′-(pyrazin-2-ylamine)-urea], the inhibition at 0.1 µM in assay [2] turned out to be 12.1%; in the assay with BGC-823, liver cancer, 7.89%; in the assay on A549, human lung cancer, 5.46%; in the assay on MCF-7, breast cancer, 8.29%. Further, the inhibition at 1 µM is 34.6% in assay [2]; 27.1% in the assay with BGC-823, liver cancer; 40.9% with A549, human lung cancer; 26.2% in the assay on MCF-7, breast cancer. For the same compound, the inhibition at 10 µM in assay [2] was found to be 51.5%; with BGC-823, liver cancer, 52.7%; in the assay on A549, human lung cancer, 66%; in the assay on MCF-7, breast cancer it was 37.6%. In addition, the values for the inhibition at 0.2 µM in assay [3], in assay [4] and in assay [5] were 3.75%, -3.77% and 10.5%, respectively. The inhibition at 2 µM in assay [3] is 8.57%; in assay [4], 10.5%; in assay [5] it was 87.3%. Besides, the results for the inhibition at 20 µM in assay [3], in assay [4] and in assay [5] were 94.5%, 57.3% and 95.8%, respectively.
`CC(C)C[C@H](NC(=O)N[C@@H](Cc1ccccc1)C(=O)Nc1cnccn1)B(O)O` [Example 6, N-L-leucine borate-N′-(pyrazin-2-ylcarbamoyl)-L-phenylalanine-urea]: the inhibition at 0.1 µM in assay [2] is 1.74%; with BGC-823, liver cancer it was 4.88%; in the assay with A549, human lung cancer, -6.94%; with MCF-7, breast cancer, 0.8%. Also, the inhibition at 1 µM in assay [2] was 4.43%; in the assay with BGC-823, liver cancer it was 4.4%; in the assay with A549, human lung cancer, -3.91%; with MCF-7, breast cancer, 1.9%. Further, the inhibition at 10 µM was 16.9% in assay [2]; 8.98% with BGC-823, liver cancer; 7.01% in the assay on A549, human lung cancer; 6.05% with MCF-7, breast cancer. For the same compound, the results for the inhibition at 0.2 µM in assay [3], in assay [4] and in assay [5] were 17.4%, -3.92% and -0.67%, respectively. Also, the results for the inhibition at 2 µM in assay [3], in assay [4] and in assay [5] were 66.3%, 2.41% and 44.7%, respectively. In addition, the values for the inhibition at 20 µM in assay [3], in assay [4] and in assay [5] were 93.8%, 27.2% and 86.8%, respectively.
Turning to `CC(C)C[C@H](NC(=O)N[C@@H](Cc1ccccc1)C(=O)N[C@@H](CC(C)C)C(=O)Nc1cnccn1)B(O)O` [Example 12, N-L-leucine borate-N′-(pyrazin-2-ylcarbamoyl)-L-leucyl-L-phenylalanine-urea], the inhibition at 0.1 µM worked out at 12% in assay [2]; 6.01% in the assay with BGC-823, liver cancer; 1.55% with A549, human lung cancer; 1.77% with MCF-7, breast cancer. The inhibition at 1 µM stood at 35% in assay [2]; 36.3% with BGC-823, liver cancer; 45.5% in the assay on A549, human lung cancer; 26.3% in the assay with MCF-7, breast cancer. For the same compound, the inhibition at 10 µM in assay [2] turned out to be 46%; with BGC-823, liver cancer, 50.2%; in the assay with A549, human lung cancer, 69.7%; in the assay on MCF-7, breast cancer it was 50.8%. In addition, the inhibition at 0.2 µM was 9.76% in assay [3], -7.93% in assay [4] and 63.3% in assay [5]. Also, the results for the inhibition at 2 µM in assay [3], in assay [4] and in assay [5] were 73.2%, 34.7% and 93.4%, respectively. Besides, the inhibition at 20 µM in assay [3] was 96.7%; in assay [4], 67.8%; in assay [5], 95.8%.
